In one test the target is T1, p53(Y220C) (Homo sapiens, UniProt P04637, Y220C).
T1 construct: His-p53 Y220C (94-294) protein
The experiment in a line: In vitro DNA binding assay (HTRF), His-p53 Y220C (94-294) with biotinylated p53 consensus DNA. Format: biochemical. As to the method:
After His-p53 Y220C (94-294) protein was placed with a compound in the present of MAb Anti His-Tb cryptate (Cisbio, Cat. NO. 61HI2TLA) in a 384 well microplate (Greiner) for 15 min at 25 °C, the assay plate was transferred into 27 °C incubator and incubated for 60 min. Biotinalyted p53 consensus DNA (ID: p53-SEQUENCE 2 —F: 5′(biotin)-[…] 3′ —R: 5′ […] 3′) was added into the assay plate in the present of Streptaidin-d2 (Cisbio, Cat. NO. 610SADLF) cryptate (Final concentration: 20 mM HEPES pH=7.4, 75 mM KCl, 1 mM MgCl2, 0.1% (w/v) BSA, 1 mM DTT, 2.5 nM His-P53 Y220C (94-294) protein, 0.33 nM MAb Anti His-Tb cryptate, 2.5 nM Streptaidin-d2 cryptate, 10 nM Biotinalyted DNA) and incubated for another 60 min. Wells containing 2 μM reference compound Ref-1a served as high control, and wells containing same percentage of DMSO served as low control. Homogeneous time-resolved fluorescence (HTRF) signals were read on Tecan Spark multimode microplate reader. HTRF ratios for each individual well were calculated by equation: HTRF ratio=(Signal F665/Signal F620)*1000. The percent of activation of compounds treated wells were normalized between high control and low control (% Activation=(HTRF ratiocompound treated−HTRF ratiolow control)/(HTRF ratiohigh control−HTRF ratiolow control)*100%). Then the data were analyzed either by fitting a 4-parameter logistic model or by Excel to calculate EC50 values. And the EC50 was the concentration at 50% Activation on the curve.
Background: TR-FRET usually uses a lanthanide donor and a delayed reading to cut background.

In another test the test system is NUGC-3 (P53 Y220C). The experiment in a line: Cell viability assay (CellTiter-Glo). Format: cell-based. The following applies: NUGC-3 cells, 6 days, 37 °C. Here is the method:
Cells were collected and counted. A desired number of cells was seeded into 96-well microplate and cultured in 37 °C cell incubator overnight. Compounds dissolved in cell culture medium were added into cell plate and cultured for 6 days. After balancing CellTiter-Glo reagent and cells at room temperature for 30 min, equal volume of CellTiter-Glo reagents was added to assay plate and shaken for 2 min for cell lysis. The cells were balanced at room temperature for 10 minutes and Luminescence signal was read using Envision. The percent of cell viability for compounds treated wells were normalized between High control and low control. Wells containing cell culture medium and same percentage DMSO served as Low control. Wells containing cells and same percentage DMSO served as High control. Cell viability (%)=(Luminescence readoutCompound treated−Luminescence readoutLow control)/(Luminescence readoutHigh control−Luminescence readoutLow control)*100%. Then the data were analyzed either by fitting a 4-parameter logistic model or by Excel to calculate IC50 values. And the IC50 was the concentration at […] Cell viability on the curve.
In general terms: ATP-based viability assays read luminescence as a measure of living cells.

For the next test, the target named is p53(Y220C)_NUGC-3 (Homo sapiens, UniProt P04637, Y220C). Nature of the test: Reporter gene assay (NUGC-3_P53_Luc cells). Format: cell-based. Here is the method:
NUGC-3_P53_Luc single clonal cell line was established using pGL4.38[luc2P/p53 RE/Hygro] Vector (E365A, promega). NUGC-3_P53_Luc single clonal cells were cultured in 37 °C cell incubator before use. NUGC-3_P53_Luc cells were collected and washed twice with PBS to remove phenol red and then resuspended in medium to a proper concentration. Tested compound dilutions were transferred into 384 well assay plates (PerkinElmer). A desired number of cells was seeded into the assay plate and cultured for 6 hours at 37 °C cell incubator. Britelite plus Luciferase Assay Reagent were added into each well and the luminescence value was recorded on Envision. The percent of activity value of compounds treated wells was normalized between high control and low control. Wells containing cells and Ref-la (10 μM) served as high control, and wells containing cells and same percentage of DMSO served as low control. Activity value (%)=(Luminescence readoutCompound treated−Luminescence readoutLow control)/(Luminescence readoutHigh control−Luminescence readoutLow control)*100%. Then the data were analyzed either by fitting a 4-parameter logistic model or by Excel to calculate EC50 values and the EC50 was the concentration at 50% Activity on the curve.
In general terms: A reporter such as luciferase makes a cellular process visible.

[1] abbreviates: HTRF, 27 °C, His-p53 Y220C (94-294) 2.5 nM, biotinylated DNA 10 nM, normalized to 2 μM Ref-1a, EC50 = concentration at 50% Activation, read-out: p53(Y220C) EC50.
The mark [2] stands for this setting: 6 hours, 37 °C, luciferase, normalized to Ref-1a 10 μM, EC50 = concentration at 50% Activity, read-out: p53(Y220C)_NUGC-3 EC50.

Structures are written as SMILES. Like-named read-outs stand apart in the source and are kept apart here.

Drawing on patent publication US20260374794A1, “COMPOUNDS TARGETING MUTANT OF P53” (JACOBIO PHARMACEUTICALS CO., LTD., priority 2022, published 2026), this text covers EC50 and IC50 for 13 molecules.

With `COc1cc(P(C)(C)=O)ccc1NCC#Cc1sc2c(N[C@@H]3CCCN(C)C3)cccc2c1CC(F)(F)F` [Example 28, (R)-(3-methoxy-4-((3-(7-((1-methylpiperidin-3-yl)amino)-3-(2,2,2-trifluoroethyl)benzo[b]thiophen-2-yl)prop-2-yn-1-yl)amino)phenyl)dimethylphosphine oxide], the values for the EC50 on p53(Y220C) (setting [1]) and at p53(Y220C)_NUGC-3 (setting [2]) were 77 nM and 244 nM, respectively. For the same molecule, in the test on NUGC-3 (P53 Y220C) (Homo sapiens, 144 h), the IC50 (usually the concentration that inhibits the measured activity by half) is 1550 nM.
For `COc1cc(P(C)(C)=O)ccc1NCC#Cc1sc2c(N[C@@H]3CCN(C)C[C@@H]3F)cccc2c1[C@H](O)C(F)(F)F` [Example 31, (4-((3-(7-(((3S,4R)-3-fluoro-1-methylpiperidin-4-yl)amino)-3-((S)-2,2,2-trifluoro-1-hydroxyethyl)benzo[b]thiophen-2-yl)prop-2-yn-1-yl)amino)-3-methoxyphenyl)dimethylphosphine oxide], the values for the EC50 on p53(Y220C) (setting [1]) and on p53(Y220C)_NUGC-3 (setting [2]) were 29 nM and 126 nM, respectively. This molecule also had an IC50 with NUGC-3 (P53 Y220C) (Homo sapiens, 144 h) of 870 nM.
The matching figures for `COc1cc(P(C)(C)=O)ccc1NCC#Cc1sc2c(N[C@@H]3CCN(C)C[C@@H]3F)cccc2c1[C@@H](O)C(F)(F)F` [Example 33, (4-((3-(7-(((3S,4R)-3-fluoro-1-methylpiperidin-4-yl)amino)-3-((R)-2,2,2-trifluoro-1-hydroxyethyl)benzo[b]thiophen-2-yl)prop-2-yn-1-yl)amino)-3-methoxyphenyl)dimethylphosphine oxide]: 55 nM, 102 nM and 1440 nM.
For `COc1cc(P(C)(C)=O)ccc1NCC#Cc1sc2c(N[C@H]3CCN(C)C[C@H]3F)cccc2c1[C@@H](O)C(F)(F)F` [Example 34, (4-((3-(7-(((3R,4S)-3-fluoro-1-methylpiperidin-4-yl)amino)-3-((R)-2,2,2-trifluoro-1-hydroxyethyl)benzo[b]thiophen-2-yl)prop-2-yn-1-yl)amino)-3-methoxyphenyl)dimethylphosphine oxide] the same measures were 20 nM, 28 nM and 380 nM.
As to `COc1cc(S(C)(=O)=O)ccc1NCC#Cc1sc2c(N[C@@H]3CCN(C)C[C@@H]3F)cccc2c1CC(F)(F)F` [Example 36, (3S,4R)-3-fluoro-N-(2-(3-((2-methoxy-4-(methylsulfonyl)phenyl)amino)prop-1-yn-1-yl)-3-(2,2,2-trifluoroethyl)benzo[b]thiophen-7-yl)-1-methylpiperidin-4-amine], the EC50 came to 81 nM on p53(Y220C) (setting [1]) and 117 nM on p53(Y220C)_NUGC-3 (setting [2]). This molecule also gave an IC50 in the test on NUGC-3 (P53 Y220C) (Homo sapiens, 144 h) of 590 nM.
Turning to `COc1c(NCC#Cc2sc3c(N[C@@H]4CCN(C)C[C@@H]4F)cccc3c2CC(F)(F)F)ccc(P(C)(C)=O)c1C` [Example 41, (4-((3-(7-(((3S,4R)-3-fluoro-1-methylpiperidin-4-yl)amino)-3-(2,2,2-trifluoroethyl)benzo[b]thiophen-2-yl)prop-2-yn-1-yl)amino)-3-methoxy-2-methylphenyl)dimethylphosphine oxide], the EC50 at p53(Y220C) (setting [1]) was determined as 56 nM; at p53(Y220C)_NUGC-3 (setting [2]) it was 137 nM. The same molecule displayed a half-maximal inhibitory concentration (IC50) in the test with NUGC-3 (P53 Y220C) (Homo sapiens, 144 h) of 1230 nM.
The matching figures for `COc1c(NCC#Cc2sc3c(N[C@@H]4CCN(C)C[C@@H]4F)cccc3c2CC(F)(F)F)ccc(P(C)(C)=O)c1C(F)(F)F` [Example 42, (4-((3-(7-(((3S,4R)-3-fluoro-1-methylpiperidin-4-yl)amino)-3-(2,2,2-trifluoroethyl)benzo[b]thiophen-2-yl)prop-2-yn-1-yl)amino)-3-methoxy-2-(trifluoromethyl)phenyl)dimethylphosphine oxide]: 93 nM, 252 nM and 1890 nM.
For the molecule `CCOc1c(P(C)(C)=O)ccc(NCC#Cc2sc3c(N[C@@H]4CCN(C)C[C@@H]4F)cccc3c2CC(F)(F)F)c1OC` [Example 43, (2-ethoxy-4-((3-(7-(((3S,4R)-3-fluoro-1-methylpiperidin-4-yl)amino)-3-(2,2,2-trifluoroethyl)benzo[b]thiophen-2-yl)prop-2-yn-1-yl)amino)-3-methoxyphenyl)dimethylphosphine oxide], the values for the EC50 at p53(Y220C) (setting [1]) and at p53(Y220C)_NUGC-3 (setting [2]) were 56 nM and 160 nM, respectively. The same molecule gave an IC50 in the test with NUGC-3 (P53 Y220C) (Homo sapiens, 144 h) of 590 nM.
Regarding `COc1nc([S@](C)(=N)=O)ccc1NCC#Cc1sc2c(N[C@@H]3CCN(C)C[C@@H]3F)cccc2c1CC(F)(F)F` [Example 44, (R)-(5-((3-(7-(((3S,4R)-3-fluoro-1-methylpiperidin-4-yl)amino)-3-(2,2,2-trifluoroethyl)benzo[b]thiophen-2-yl)prop-2-yn-1-yl)amino)-6-methoxypyridin-2-yl)(imino)(methyl)-16-sulfanone], the EC50 on p53(Y220C) (setting [1]) stood at 46 nM; on p53(Y220C)_NUGC-3 (setting [2]) it was 84 nM. Besides, the IC50 with NUGC-3 (P53 Y220C) (Homo sapiens, 144 h) was 1350 nM.
For `COc1nc([S@@](C)(=N)=O)ccc1NCC#Cc1sc2c(N[C@@H]3CCN(C)C[C@@H]3F)cccc2c1CC(F)(F)F` [Example 45, (S)-(5-((3-(7-(((3S,4R)-3-fluoro-1-methylpiperidin-4-yl)amino)-3-(2,2,2-trifluoroethyl)benzo[b]thiophen-2-yl)prop-2-yn-1-yl)amino)-6-methoxypyridin-2-yl)(imino)(methyl)-16-sulfanone] the same measures were 65 nM, 95 nM and 1330 nM.
For `COc1cc(P(C)(C)=O)ccc1NCC#Cc1sc2c(N[C@@H]3CN4CCC3CC4)cccc2c1CC(F)(F)F` [Example 48, (S)-(3-methoxy-4-((3-(7-(quinuclidin-3-ylamino)-3-(2,2,2-trifluoroethyl)benzo[b]thiophen-2-yl)prop-2-yn-1-yl)amino)phenyl)dimethylphosphine oxide], the EC50 at p53(Y220C) came out at 65 nM; at p53(Y220C)_NUGC-3 (read-out: p53(Y220C)_NUGC-3 EC50, 6 hours, 37 °C, luciferase, normalized to Ref-1a 10 μM, EC50 = concentration at 50% Activity), 439 nM. In addition, half-maximal inhibition with NUGC-3 (P53 Y220C) (Homo sapiens, 144 h) (IC50) was put at 1600 nM.
As to `COc1cc([S@](=N)(=O)C2COC2)ccc1NCC#Cc1sc2c(N[C@@H]3CCN(C)C[C@@H]3F)cccc2c1CC(F)(F)F` [Example 49, (R)-(4-((3-(7-(((3S,4R)-3-fluoro-1-methylpiperidin-4-yl)amino)-3-(2,2,2-trifluoroethyl)benzo[b]thiophen-2-yl)prop-2-yn-1-yl)amino)-3-methoxyphenyl)(imino)(oxetan-3-yl)-16-sulfanone], the EC50 amounted to 51 nM on p53(Y220C) (setting [1]) and 64 nM at p53(Y220C)_NUGC-3 (setting [2]). The IC50 in the test with NUGC-3 (P53 Y220C) was determined as 750 nM.
Consider `COc1cc([S@@](=N)(=O)C2COC2)ccc1NCC#Cc1sc2c(N[C@@H]3CCN(C)C[C@@H]3F)cccc2c1CC(F)(F)F` [Example 50, (S)-(4-((3-(7-(((3S,4R)-3-fluoro-1-methylpiperidin-4-yl)amino)-3-(2,2,2-trifluoroethyl)benzo[b]thiophen-2-yl)prop-2-yn-1-yl)amino)-3-methoxyphenyl)(imino)(oxetan-3-yl)-16-sulfanone], for which the results for the EC50 at p53(Y220C) (setting [1]) and on p53(Y220C)_NUGC-3 (setting [2]) were 25 nM and 76 nM, respectively. The molecule also returned a concentration for half-maximal inhibition (IC50) in the test on NUGC-3 (P53 Y220C) (Homo sapiens, 144 h) of 1080 nM.
